From patent US20060205787A1, “Methods and compositions using 4-amino-2-(3-methyl-2,6-dioxopiperidin-3-yl)-isoindole-1,3-dione” (priority 2005, published 2006)

Row | melting point [°C] | Structure (SMILES)
1 | 111 to 113 | CC1(N2C(=O)c3cccc(NC(=O)CN)c3C2=O)CCC(=O)NC1=O.Cl (stereo not drawn)
2 | > 260 | C[C@]1(N2C(=O)c3cccc(NC(=O)CN)c3C2=O)CCC(=O)NC1=O.Cl
3 | 235 to 237 | C[C@]1(N2C(=O)c3cccc(N)c3C2=O)CCC(=O)NC1=O [Example 5.1.11, (3S)-4-Amino-2-(3-Methyl-2,6-Dioxopiperidin-3-yl)-Isoindole-1,3-Dione]
